What all share (assay type): cell-based
Test [1] concerns the target T1, MOR receptor (Homo sapiens, UniProt P35372).
T1 construct: host or cells: CHO-K1
Kind of test: Activation of the β-arrestin signaling pathway of MOR receptor (CHO-K1 OPRM1 β-Arrestin cells, DiscoveRX). To be noted: for Emax: maximum effect of morphine is 100%. The method, then: The experiment objective is to determine the activity of the compounds of the present invention on activating the β-arrestin signaling pathway of MOR receptor.
The drug was prepared as a 20 mM stock solution that was later diluted with 100% DMSO to a 200×concentration gradient, and then diluted with a 20-fold AssayComplete™ Cell Plating 2 Reagent (93-0563R2B, DiscoveRX) medium. The cell culture plate inoculated on the first day was taken out, and 10 μl of the diluted drug or control (0.5% DMSO) was added to each well. The plate was gently shaken and placed in an incubator at 37° C., 5% CO2 for 90 minutes. Finally, 50 μL of a detection reagent (93-0001, DiscoveRX) were added to each well, and the plate was placed at room temperature for 60 minutes. The absorbance values were measured by the cold light model of a microplate reader (PE, Victor3). The EC50 values of the compounds were calculated by Graphpad Prism software according to each concentration of the compound and the corresponding signal value.

Test [2] deals with T2, hERG potassium channel (Homo sapiens, UniProt Q12809).
T2 construct: expressed in transfected cells; host or cells: HEK293
T2 sequence (Q12809 whole entry): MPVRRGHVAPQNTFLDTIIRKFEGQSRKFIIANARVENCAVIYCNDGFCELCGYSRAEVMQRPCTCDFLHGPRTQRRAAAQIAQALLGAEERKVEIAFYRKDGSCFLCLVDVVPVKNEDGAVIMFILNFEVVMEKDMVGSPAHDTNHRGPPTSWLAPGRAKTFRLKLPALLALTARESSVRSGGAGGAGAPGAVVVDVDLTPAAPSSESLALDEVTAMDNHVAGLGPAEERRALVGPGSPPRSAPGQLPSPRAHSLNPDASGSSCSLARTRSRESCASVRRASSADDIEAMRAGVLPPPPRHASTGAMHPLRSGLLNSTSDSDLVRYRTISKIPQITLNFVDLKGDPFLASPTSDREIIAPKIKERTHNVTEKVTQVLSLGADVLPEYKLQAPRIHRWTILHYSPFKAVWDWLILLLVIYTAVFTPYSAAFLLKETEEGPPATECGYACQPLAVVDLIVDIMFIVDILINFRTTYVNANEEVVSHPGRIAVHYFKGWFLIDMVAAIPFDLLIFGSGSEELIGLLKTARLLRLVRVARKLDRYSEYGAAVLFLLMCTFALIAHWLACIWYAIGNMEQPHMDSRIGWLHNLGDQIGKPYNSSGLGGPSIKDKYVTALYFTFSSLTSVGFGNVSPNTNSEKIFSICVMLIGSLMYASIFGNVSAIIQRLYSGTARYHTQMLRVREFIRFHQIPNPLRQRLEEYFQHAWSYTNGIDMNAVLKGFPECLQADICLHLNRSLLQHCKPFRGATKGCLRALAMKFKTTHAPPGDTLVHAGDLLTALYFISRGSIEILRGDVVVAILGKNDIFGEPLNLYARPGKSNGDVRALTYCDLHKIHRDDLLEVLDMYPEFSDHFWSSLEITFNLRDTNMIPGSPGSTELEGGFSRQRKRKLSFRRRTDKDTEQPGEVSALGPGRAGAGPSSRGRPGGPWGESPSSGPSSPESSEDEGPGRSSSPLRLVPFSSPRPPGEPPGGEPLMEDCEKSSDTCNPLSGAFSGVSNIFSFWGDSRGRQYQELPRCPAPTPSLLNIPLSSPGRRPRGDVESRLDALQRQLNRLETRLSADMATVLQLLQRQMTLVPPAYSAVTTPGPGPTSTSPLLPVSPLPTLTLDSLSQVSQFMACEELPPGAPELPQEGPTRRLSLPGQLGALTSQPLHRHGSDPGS
Kind of test: Blocking of hERG potassium current, automatic patch clamp on HEK293-hERG cells. On the procedure:
The blocking effect of the compounds of the present invention and the positive compound TRV-130 (Journal of Pharmacology and Experimental Therapeutics, Volume 344, Issue 3, Pages 708-717, 2013) on hERG potassium current was tested on a stable cell line transfected with hERG potassium channel using an automatic patch clamp.
HEK293-hERG stabilized cells were subcultured at a density of 1:4 in a MEM/EBSS medium (10% FBS, 400 μg/ml G418, 1% MEM nonessential amino acid solution (100×), 1% sodium pyruvate solution) for 48-72 hours, then the automatic patch clamp experiment was performed. The cells were digested with 0.25% trypsin on the day of the experiment, then the cells were collected by centrifugation and resuspended with extracellular fluid (140 mM NaCl, 4 mM KCl, 1 mM MgCl2, 2 mM CaCl2, 5 mM D-glucose monohydrate, 10 mM Hepes, pH 7.4, 298 mOsmol) into a cell suspension. The cell suspension was placed on the cell bank of the Patchliner instrument, and the cells were added to the chip (NPC-16) by the negative pressure controller of the Patchliner instrument, with negative pressure attracting individual cells to the small hole of the chip. After the whole cell model was formed, the instrument generated the hERG current according to the preset hERG current and voltage program, and then the instrument perfused the compound from low concentration to high concentration automatically. HEAK Patchmaster, HEAK EPC10 patch clamp amplifier (Nanion), Pathliner software, and a data analysis software provided by Pathcontrol HTsoftware were used to analyze the current of the compounds at different concentrations and the current of the blank control.
The blocking effect of the compounds of the present invention on hERG potassium current was determined by the above test, and the IC50 values are shown in Table 3.

Test [3] deals with T3, μ-opioid receptors (MOR) (Homo sapiens, UniProt P35372).
T3 construct: host or cells: HEK293
T3 sequence (P35372 whole entry): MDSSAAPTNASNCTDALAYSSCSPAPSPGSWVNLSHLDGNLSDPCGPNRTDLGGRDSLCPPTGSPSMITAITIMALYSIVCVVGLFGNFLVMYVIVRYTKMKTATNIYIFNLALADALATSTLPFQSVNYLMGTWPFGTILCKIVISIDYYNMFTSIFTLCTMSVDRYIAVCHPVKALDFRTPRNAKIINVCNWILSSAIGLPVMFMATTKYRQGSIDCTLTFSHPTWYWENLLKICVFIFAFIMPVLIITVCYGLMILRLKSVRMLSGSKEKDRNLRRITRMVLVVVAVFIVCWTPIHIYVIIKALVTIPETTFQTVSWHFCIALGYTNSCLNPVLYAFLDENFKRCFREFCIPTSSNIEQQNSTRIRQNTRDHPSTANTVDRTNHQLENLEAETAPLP
Kind of test: MOR activity test: HEK293/MOR/CRE luciferase reporter, agonizing MOR and affecting downstream cAMP levels. The note with it: for Emax: HEK293, maximum effect of TRV-130 is 100%, read-out: Emax on agonizing MOR receptor and affecting cAMP levels. The source says:
The compounds of the present invention can activate μ-opioid receptors (MOR). Activated MOR can regulate intracellular cAMP levels, and cAMP enters the nucleus and binds to the CRE region of the reporter gene luciferase, thereby initiating the expression of the reporter gene. Luciferase can react with its substrate to emit fluorescence, and the measured fluorescence signals reflect the agonistic activity of the compounds.
The activity of the test example compounds on agonizing MOR and affecting downstream cAMP levels was tested by the following method.
MOR/pcDNA3.1 (+) and CRE/pGL4.29 were transferred into HEK293 cells. G418 and hygromycin were added into the culture medium, and HEK293/MOR/CRE monoclonal cell lines were screened in a 96-well cell culture plate.
HEK293/MOR/CRE monoclonal cells were cultured in a DMEM/high glucose medium (10% FBS, 1 mg/ml G418, 200 μg/ml hygromycin, mixed uniformly), and passaged every 3 days. On the day of the experiment, a cell suspension was prepared with a fresh cell medium, added to a 96 well plate (BD, #356692) with 20,000 cells/well, and incubated in 5% CO2 at 37° C. On the second day, the compound was dissolved in pure DMSO at a concentration of 20 mM, then formulated with DMSO to a first concentration of 4 mM and diluted in 10 fold concentration gradient to 6 concentrations. Then, 90 μl of DMSO was added to blank and control wells. Then, formulated compound was prepared by adding 2.5 μl of the compound solutions formulated in DMSO at a gradient concentration to 97.5 μl of a fresh cell culture medium containing 5 μM foscolin. Then, 10 μl of the formulated compound was added to the cell culture plate to make the final concentration of the compound 10000, 1000, 100, 10, 1, 0.1, or 0.01 nM, and the plate was incubated at 37° C., in 5% CO2 for 5 hours. In a 96-well cell culture plate, 100 μl of luciferase assay solution (Promega, # E6110) was added to each well. The plate was placed in the dark at room temperature for 10-15 minutes, blowed and aspirated 10 times, and 100 μl were pipetted to a 96 well white plate. The chemiluminescence signal values were read in a microplate reader (PE, Victor3), and the read data was processed using software.
The activity of the compounds of the present invention on agonizing MOR and affecting downstream cAMP levels was determined by the above test, and the EC50 values are shown in Table 1.1.
Background: In a reporter assay the amount or activity of a reporter protein is the signal.

For test [4], the target named is T4, KOR receptor (Homo sapiens, UniProt P41145).
T4 construct: expressed in transfected cells; host or cells: HEK293
T4 sequence (P41145 whole entry): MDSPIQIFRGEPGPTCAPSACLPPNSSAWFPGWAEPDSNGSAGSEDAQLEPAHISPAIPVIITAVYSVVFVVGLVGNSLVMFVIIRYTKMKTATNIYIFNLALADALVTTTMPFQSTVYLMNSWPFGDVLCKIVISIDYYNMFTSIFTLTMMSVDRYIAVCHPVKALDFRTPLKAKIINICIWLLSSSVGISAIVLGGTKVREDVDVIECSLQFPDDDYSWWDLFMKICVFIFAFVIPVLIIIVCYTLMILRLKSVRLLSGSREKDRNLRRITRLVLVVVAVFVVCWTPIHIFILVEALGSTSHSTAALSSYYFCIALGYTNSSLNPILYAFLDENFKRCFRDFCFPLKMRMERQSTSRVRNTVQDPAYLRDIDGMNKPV
Kind of test: KOR activity test: HEK293/KOR/CRE luciferase reporter, cAMP levels. The note with it: for Emax: HEK293, maximum effect of morphine is 100%. On the procedure: (§1) The experiment objective is to determine the activity of the compounds of the present invention on agonizing KOR receptor and DOR receptor, and affecting downstream cAMP levels.
(§2) 90 μl of HEK293/KOR/CRE or HEK293/DOR/CRE (CRE cDNA purchased from Promega, product number E8471, KOR cDNA and DOR cDNA were constructed by our company) cells were inoculated in a 96-well plate with a density of 1×10^4 cells/well. Then, the cells were incubated overnight at 37° C., in 5% CO2. The drug was prepared as a 20 mM stock solution that was later diluted with 100% DMSO to a 200×concentration gradient, and then diluted with a 20-fold DMEM/high glucose (SH30243.01B, Hyclone) medium. The cell culture plate inoculated on the first day was taken out, and […] of the diluted drug or control (0.5% DMSO) was added to each well. The plate was gently shaken and placed in a incubator at 37° C., 5% CO2 for 4 hours. Finally, 100 μl of a detection reagent ONE-Glo (E6120, Promega) was added to each well, and the plate was placed at room temperature for 5 minutes. The absorbance value was measured by the cold light model of a microplate reader (PE, Victor3). The EC50 value of the compound was calculated by Graphpad Prism software according to each concentration of the compound and the corresponding signal value. Emax is the maximum effect of the compound on cAMP level changes.
(§3) The activity of the compounds of the present invention on agonizing KOR receptor or DOR receptor and affecting downstream cAMP levels was determined by the above test, and the EC50 values are shown in Table 1.2.

Test [5] has as its target T5, DOR receptor (Homo sapiens, UniProt P41143).
T5 construct: expressed in transfected cells; host or cells: HEK293
Kind of test: DOR activity test: HEK293/DOR/CRE luciferase reporter, cAMP levels. The note with it: for Emax: HEK293, maximum effect of morphine is 100%. The method, then:
as §1, §2, §3

The mark [6] stands for this setting: CHO-K1 OPRM1 β-Arrestin cells, 90 minutes, read-out: EC50 on the β-arrestin signaling pathway.
Where [7] appears, read: HEK293-hERG cells, automatic patch clamp, read-out: IC50 on blocking hERG potassium current.
Setting [8] is: HEK293/MOR/CRE cells, 5 h incubation, forskolin, read-out: EC50 on agonizing MOR receptor and affecting cAMP levels.
[9] abbreviates: HEK293/KOR/CRE cells, 4 h incubation, read-out: KOR EC50.
Setting [10] is: HEK293/DOR/CRE cells, 4 h incubation, read-out: DOR EC50.

Each structure is given as a SMILES string. Where two headings read alike, the source gives them in different places.

T1 sequence (P35372 whole entry): as the sequence (P35372 whole entry) above
T5 sequence (P41143 whole entry): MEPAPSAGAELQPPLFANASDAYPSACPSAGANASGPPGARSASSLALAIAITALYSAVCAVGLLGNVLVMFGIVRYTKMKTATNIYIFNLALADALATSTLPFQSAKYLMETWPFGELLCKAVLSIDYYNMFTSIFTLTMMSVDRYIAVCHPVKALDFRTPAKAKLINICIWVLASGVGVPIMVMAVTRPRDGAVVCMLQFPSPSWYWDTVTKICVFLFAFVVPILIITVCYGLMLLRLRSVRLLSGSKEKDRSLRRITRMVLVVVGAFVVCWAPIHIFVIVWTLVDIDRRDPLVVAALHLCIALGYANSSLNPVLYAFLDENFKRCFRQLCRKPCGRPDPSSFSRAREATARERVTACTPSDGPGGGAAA

The EC50 is the midpoint of the concentration-response curve. As a reminder, the Emax is the size of the effect at its maximum, as opposed to the concentration needed. A word on the IC50: it is the concentration at which inhibition is half-maximal. Take `CCN1CC[C@H](NCC[C@@]2(c3ccccn3)CCOC3(CCCC3)C2)c2ccccc21` [Example 1, (S)-1-ethyl-N-(2-((R)-9-(pyridin-2-yl)-6-oxaspiro[4.5]decan-9-yl)ethyl)-1,2,3,4-tetrahydroquinolin-4-amine]: the results for the EC50 in test [1] (setting [6]) and in test [3] (setting [8]) were 4 nM and 10 nM, respectively. The Emax in test [1] worked out at 12%; in test [3], 102%. Further, the IC50 in test [2] (setting [7]) turned out to be 13000 nM.
Consider `c1ccc([C@]2(CCN[C@H]3CCOc4ccccc43)CCOC3(CCCC3)C2)nc1` [Example 6, (S)-N-(2-((R)-9-(pyridin-2-yl)-6-oxaspiro[4.5]decan-9-yl)ethyl)chroman-4-amine], for which half-maximal inhibition in test [2] (IC50) required 3800 nM. In test [3], the EC50 was determined as 1 nM and the Emax was found to be 115%.
Regarding `O=C1CC[C@H](NCC[C@@]2(c3ccccn3)CCOC3(CCCC3)C2)c2ccccc21` [Example 11, (S)-4-((2-((R)-9-(pyridin-2-yl)-6-oxaspiro[4.5]decan-9-yl)ethyl)amino)-3,4-dihydronaphthalen-1(2H)-one], the EC50 in test [1] came out at 305 nM; in test [4], 277 nM; in test [5], 1920 nM; in test [3], 17 nM. Further, the Emax in test [1] stood at 37%; in test [4] it was 98%; in test [5], 80%; in test [3] it was 112%. Also, the IC50 in test [2] turned out to be 4100 nM.
For `O[C@H]1CC[C@H](NCC[C@@]2(c3ccccn3)CCOC3(CCCC3)C2)c2ccccc21` [Example 12, (1S,4S)-4-((2-((R)-9-(pyridin-2-yl)-6-oxaspiro[4.5]decan-9-yl)ethyl)amino)-1,2,3,4-tetrahydronaphthalen-1-ol], 10200 nM corresponded to half-maximal inhibition in test [2] (IC50). Besides, in test [3], the response was half-maximal at 2 nM (EC50) and the Emax was 125%.
On the same counts, the results for `O[C@@H]1CC[C@H](NCC[C@@]2(c3ccccn3)CCOC3(CCCC3)C2)c2ccccc21` [Example 13, (1R,4S)-4-((2-((R)-9-(pyridin-2-yl)-6-oxaspiro[4.5]decan-9-yl)ethyl)amino)-1,2,3,4-tetrahydronaphthalen-1-ol] are 13500 nM, 8 nM and 130%.
On to `CO[C@H]1CC[C@H](NCC[C@@]2(c3ccccn3)CCOC3(CCCC3)C2)c2ccccc21` [Example 14, (1S,4S)-4-methoxy-N-(2-((R)-9-(pyridin-2-yl)-6-oxaspiro[4.5]decan-9-yl)ethyl)-1,2,3,4-tetrahydronaphthalen-1-amine], for which the EC50 in test [1] worked out at 26 nM; in test [4], 1470 nM; in test [5] it was 1510 nM; in test [3], 3 nM. Moreover, the Emax is 24% in test [1], 74% in test [4], 91% in test [5] and 109% in test [3]. In addition, the IC50 in test [2] is 8600 nM.
Turning to `c1ccc([C@]2(CCN[C@H]3CCc4ccccc43)CCOC3(CCCC3)C2)nc1` [Example 16, (S)-N-(2-((R)-9-(pyridin-2-yl)-6-oxaspiro[4.5]decan-9-yl)ethyl)-2,3-dihydro-1H-inden-1-amine], in test [1], the EC50 came to 94 nM and the Emax was found to be 9%. Also, the IC50 in test [2] worked out at 10000 nM. In test [3], a half-maximal response (EC50) required 9 nM and the maximum response (Emax) was determined as 122%.
As for `c1ccc([C@]2(CCN[C@H]3CC[C@H](OCC4CC4)c4ccccc43)CCOC3(CCCC3)C2)nc1` [Example 20, (1S,4S)-4-(cyclopropylmethoxy)-N-(2-((R)-9-(pyridin-2-yl)-6-oxaspiro[4.5]decan-9-yl)ethyl)-1,2,3,4-tetrahydronaphthalen-1-amine], the EC50 in test [1] (setting [6]) stood at 4 nM; in test [4] (setting [9]) it was 710 nM; in test [5] (setting [10]), 1520 nM. Moreover, the Emax is 9% in test [1], 103% in test [4] and 118% in test [5].
For `FCCO[C@H]1CC[C@H](NCC[C@@]2(c3ccccn3)CCOC3(CCCC3)C2)c2ccccc21` [Example 21, (1S,4S)-4-(2-fluoroethoxy)-N-(2-((R)-9-(pyridin-2-yl)-6-oxaspiro[4.5]decan-9-yl)ethyl)-1,2,3,4-tetrahydronaphthalen-1-amine], the EC50 was found to be 1180 nM in test [4] (setting [9]), 1490 nM in test [5] (setting [10]) and 5 nM in test [3] (setting [8]). Besides, the Emax in test [4] was determined as 100%; in test [5] it was 107%; in test [3] it was 110%. Besides, the IC50 in test [2] (setting [7]) came to 4200 nM.
On to `c1ccc([C@]2(CCN[C@H]3CCC4(SCCS4)c4ccccc43)CCOC3(CCCC3)C2)nc1` [Example 24, (S)-N-(2-((R)-9-(pyridin-2-yl)-6-oxaspiro[4.5]decan-9-yl)ethyl)-3′,4′-dihydro-2′H-spiro[[1,3]dithiolane-2,1′-naphthalen]-4′-amine], for which the EC50 was 6 nM in test [1] (setting [6]) and 0.8 nM in test [3] (setting [8]). Also, the Emax stood at 30% in test [1] and 102% in test [3]. Moreover, the IC50 in test [2] (setting [7]) is 2500 nM.

(Values after US10442793B2, “Oxa spiro derivative, preparation method therefor, and applications thereof in medicines” (Jiangsu Hengrui Medicine Co., Ltd., priority 2015, dated 2019).)
